Source: publication PMC6137088, “The Role of Outer Membrane Proteins and Lipopolysaccharides for the Sensitivity of Escherichia coli to Antimicrobial Peptides” (Frontiers in Microbiology, 2018)
Converted amounts (≈) assume the structure as drawn. Structures can show the parent of a compound that is named as a salt. Where a SMILES comes first, the peptide text is derived from it. Bridges are numbered along the chain shown (N, C = ends). Where no end group is shown, it is not given here. [ ]: non-standard residue; d: D form. The star is where a group is joined. X1 = CC[C@H](C)CCCCC(=O)*; Dab = NCC[C@H](N)C(=O)O

Assays:
[1] = system: E. coli BW25113 gmhA::kan; format: cell-based, Escherichia coli; settings: for MIC: Table 3, BW25113 gmhA::kan, Mueller-Hinton-II, 16–20 h, duplicates (*) or triplicates
From the text: (§1) The E. coli strains 470, F632, F653 and F2513 were kindly provided by Prof. H. Brade and Prof. S. Muller-Loennies, Research Center Borstel, Leipniz-Center for Medicine and Biosciences, Germany. E. coli BW25113 (CGSC#:7636), a derivative of F^−, λ^− E. coli K12 strain BD792 is the wild-type strain which was used in the generation of the KEIO collection and ordered from the Coli Genetic Stock Centre (CGSC, Yale University). E. coli JW3596, E. coli JW3024, E. coli JW3595, E. coli JW3606, E. coli JW0212, E. coli JW1667, E. coli JW0554, E. coli JW3605 and E. coli JW3600 are isogenic mutants of waaC, waaE, waaF, waaG, gmhA (lpcA), lpp, ompT, waaP, or waaY derived from the parental strain E. coli BW25113 and were ordered from the KEIO collection (Baba et al., [2006]). E. coli ATCC25922 is a clinical isolate, serotype O6, often used as control strain in antimicrobial susceptibility testing was ordered from the ATCC strain collection. All strains were grown in Mueller-Hinton-II medium and incubation took place aerobically at 37°C for 18–20 h.
(§2) The minimum inhibitory concentrations (MICs) of the AMPs were measured in 96-well microtiter plates according the Clinical and Laboratory Standards Institute [CLSI, formerly National Committee for Clinical Laboratory Standards (NCCLS)] (Wikler et al., [2009]). Liquid Mueller-Hinton-II medium containing increasing concentrations of AMPs is inoculated with a defined number of cells (~10^5 CFUs/ml) in 96-well microtiter plates (polypropylene). Each microtiter plate includes a positive growth control and a negative control (sterile control). After incubation, the minimal inhibitory concentration (MIC) is determined by the lowest concentration showing no visible growth. All plates were incubated for 16–20 h.

[2] = system: E. coli BW25113 lpp::kan; format: cell-based, Escherichia coli; settings: for MIC: Table 3, BW25113 lpp::kan, Mueller-Hinton-II, 16–20 h, duplicates (*) or triplicates
From the text: as §1, §2

[3] = system: E. coli BW25113 waaC::kan; format: cell-based, Escherichia coli; settings: for MIC: Table 3, BW25113 waaC::kan, Mueller-Hinton-II, 16–20 h, duplicates (*) or triplicates
From the text: as §1, §2

[4] = system: E. coli BW25113 waaE::kan; format: cell-based, Escherichia coli; settings: for MIC: Table 3, BW25113 waaE::kan, Mueller-Hinton-II, 16–20 h, duplicates (*) or triplicates
From the text: as §1, §2

[5] = system: E. coli BW25113 waaF::kan; format: cell-based, Escherichia coli; settings: for MIC: Table 3, BW25113 waaF::kan, Mueller-Hinton-II, 16–20 h, duplicates (*) or triplicates
From the text: as §1, §2

[6] = system: E. coli BW25113 waaG::kan; format: cell-based, Escherichia coli; settings: for MIC: Table 3, BW25113 waaG::kan, Mueller-Hinton-II, 16–20 h, duplicates (*) or triplicates
From the text: as §1, §2

[7] = system: E. coli BW25113 waaP::kan; format: cell-based, Escherichia coli; settings: for MIC: Table 3, BW25113 waaP::kan, Mueller-Hinton-II, 16–20 h, duplicates (*) or triplicates
From the text: as §1, §2

[8] = system: E. coli BW25113 waaY::kan; format: cell-based, Escherichia coli; settings: Table 3, Mueller-Hinton-II, 16–20 h, duplicates (*) or triplicates
From the text: as §1, §2

[9] = system: E. coli BW25113; format: cell-based, Escherichia coli; settings: for MIC: Table 3, E. coli BW25113 wild type, Mueller-Hinton-II, ~10^5 CFUs/ml, 16–20 h, duplicates (*) or triplicates; for Antimicrobial activity (MIC): Table 4, E. coli BW25113 (K12 core type), triplicates
From the text: as §1, §2

[10] = system: E. coli F2513 (R4); format: cell-based, Escherichia coli; settings: Table 4; E. coli F2513 (R4 prototype, rough LPS); triplicates
From the text: as §1, §2

[11] = system: E. coli F470 (R1); format: cell-based, Escherichia coli; settings: Table 4; E. coli F470 (R1 prototype, rough LPS); triplicates
From the text: as §1, §2

[12] = system: E. coli F632 (R2); format: cell-based, Escherichia coli; settings: Table 4; E. coli F632 (R2 prototype, rough LPS); triplicates
From the text: as §1, §2

[13] = system: E. coli F653 (R3); format: cell-based, Escherichia coli; settings: Table 4; E. coli F653 (R3 prototype, rough LPS); triplicates
From the text: as §1, §2

[14] = system: E. coli BW25113 ompT::kan; format: cell-based, Escherichia coli; settings: for MIC: Table 3, BW25113 ompT::kan, Mueller-Hinton-II, 16–20 h, duplicates (*) or triplicates
From the text: as §1, §2

[15] = system: E. coli strains representing core types K12, R1, R2, R3, R4 and ATCC25922; format: cell-based, Escherichia coli; settings: span over isolates and core types of Table 4
From the text: as §1, §2

[16] = system: E. coli ATCC25922 ΔwaaC; format: cell-based, Escherichia coli; settings: Table 6, triplicates
From the text: as §1, §2

[17] = system: E. coli ATCC25922 ΔwaaE; format: cell-based, Escherichia coli; settings: Table 6, triplicates
From the text: as §1, §2

[18] = system: E. coli ATCC25922 ΔwaaF; format: cell-based, Escherichia coli; settings: Table 6, triplicates
From the text: as §1, §2

[19] = system: E. coli ATCC25922 ΔwaaG; format: cell-based, Escherichia coli; settings: Table 6, triplicates
From the text: as §1, §2

[20] = system: E. coli ATCC25922; format: cell-based, Escherichia coli; settings: Table 6; E. coli ATCC25922 wild-type; triplicates
From the text: as §1, §2

[21] = system: S. typhimurium LT2; assay: MIC testing (CLSI broth microdilution); format: cell-based; settings: Table 6, triplicates
Description: as §2

[22] = system: Y. ruckeri 392/2003; assay: MIC testing (CLSI broth microdilution); format: cell-based; settings: Table 6, triplicates
Description: as §2

[23] = system: E. coli ATCC25922 LPS mutants (ΔwaaC, ΔwaaE, ΔwaaF, ΔwaaG); format: cell-based, Escherichia coli; settings: E. coli ATCC25922 background (text prints ATCC29522); summary of Table 6
From the text: as §1, with “[…],” for “E. coli JW3605 and E. coli JW3600 are isogenic mutants of waaC, waaE, waaF, waaG,”, “or waaY derived from the parental strain E. coli BW25113 and were ordered from the” left out
as §2

Compound | MIC [1] | MIC [2] | MIC [3] [µg/mL] | MIC [4] [µg/mL] | MIC [5] [µg/mL] | MIC [6] [µg/mL] | MIC [7] [µg/mL] | MIC [8] [µg/mL] | MIC [9] [µg/mL] | Antimicrobial activity (MIC) [9] [µg/mL] | Antimicrobial activity (MIC) [10] [µg/mL] | Antimicrobial activity (MIC) [11] [µg/mL] | Antimicrobial activity (MIC) [12] [µg/mL] | Antimicrobial activity (MIC) [13] [µg/mL] | MIC [14] | MIC over all the tested E. coli strains [15] [µg/mL] | Antimicrobial activity: MIC [16] [µg/mL] | Antimicrobial activity: MIC [17] [µg/mL] | Antimicrobial activity: MIC [18] [µg/mL] | Antimicrobial activity: MIC [19] [µg/mL] | further results
GLRKKFRKTRKRIQKLGRKIGKTGRKVWKAWREYGQIPYPCRI [Cap11] | 8 ^* μg/ml | 8 ^* μg/ml | 8 | 8 | 8 | 8 | 8 to 16 | 8 to 16 | 8 | 8 | 4 to 8 | 16 | 8 | 16 |  |  |  |  |  |  | 
CC[C@H](C)CCCCC(=O)N[C@@H](CCN)C(=O)N[C@H](C(=O)N[C@@H](CCN)C(=O)N[C@H]1CCNC(=O)[C@H]([C@@H](C)O)NC(=O)[C@H](CCN)NC(=O)[C@H](CCN)NC(=O)[C@H](CC(C)C)NC(=O)[C@@H](CC(C)C)NC(=O)[C@H](CCN)NC1=O)[C@@H](C)O [Colistin, colistin sulfate] (X1-[Dab]T[Dab][Dab][Dab][dL]L[Dab][Dab]T; lactam 4-C (inferred); N-terminus assumed) | 0.063 µg/mL | 0.063 to 0.125 µg/mL | 0.063 to 0.125 | 0.063 to 0.125 | 0.063 | 0.063 to 0.125 | 0.125 to 0.25 | 0.125 to 0.25 | 0.125 to 0.25 |  |  |  |  |  | 0.125 to 0.25 µg/mL |  |  |  |  |  | increase in antimicrobial activity against BW25113 gmhA::kan compared to parental BW25113 ([1]; from MIC values of Table 3): up to 2 fold; increase in antimicrobial susceptibility of the lpp mutant compared to the wild-type (factor) ([2]; from MIC values of Table 3): 2; increase of antimicrobial activity in the ompT mutant compared to the parental strain BW25113 (factor) ([14]; from MIC values of Table 3): unchanged; increase in antimicrobial activity against BW25113 waaC::kan compared to parental BW25113 ([3]; from MIC values of Table 3): up to 2 fold; increase in antimicrobial activity against BW25113 waaE::kan compared to parental BW25113 ([4]; from MIC values of Table 3): up to 2 fold; increase in antimicrobial activity against BW25113 waaF::kan compared to parental BW25113 ([5]; from MIC values of Table 3): up to 2 fold; increase in antimicrobial activity against BW25113 waaG::kan compared to parental BW25113 ([6]; from MIC values of Table 3): up to 2 fold; increase in antimicrobial activity in a waaP mutant background compared to the wild-type strain (times) ([7]; from MIC values of Table 3): not changed
CC[C@H](C)[C@H](NC(=O)CN)C(=O)NCC(=O)N[C@@H](C)C(=O)N[C@H](C(=O)N[C@@H](CC(C)C)C(=O)N[C@@H](CCCCN)C(=O)N[C@H](C(=O)N[C@@H](CC(C)C)C(=O)N[C@H](C(=O)N[C@H](C(=O)NCC(=O)N[C@@H](CC(C)C)C(=O)N1CCC[C@H]1C(=O)N[C@@H](C)C(=O)N[C@@H](CC(C)C)C(=O)N[C@H](C(=O)N[C@@H](CO)C(=O)N[C@@H](Cc1c[nH]c2ccccc12)C(=O)N[C@H](C(=O)N[C@@H](CCCCN)C(=O)N[C@@H](CCCNC(=N)N)C(=O)N[C@@H](CCCCN)C(=O)N[C@@H](CCCNC(=N)N)C(=O)N[C@@H](CCC(N)=O)C(=O)N[C@@H](CCC(N)=O)C(N)=O)[C@@H](C)CC)[C@@H](C)CC)[C@@H](C)O)[C@@H](C)O)C(C)C)C(C)C [Melittin] | 2 ^* μg/ml |  | 4 (≈ 1.41 µM) | 4 (≈ 1.41 µM) | 4 (≈ 1.41 µM) | 4 (≈ 1.41 µM) | 4 (≈ 1.41 µM) | 16 to 32 | 16 to 32 |  | 4 | 16 | 32 | 32 | 32 ^* μg/ml | 4 to 32 |  |  |  |  | 
GLRKRLRKFRNKIKEKLKKIGQKIQGLLPKLAPRTDY [Cap18] | 4 to 8 µg/mL |  | 4 | 4 | 4 | 4 | 4 to 8 | 4 to 8 | 4 to 8 | 4 to 8 | 2 to 4 | 4 | 4 | 4 to 8 | 4 to 8 µg/mL | 4 to 8 | 2 to 4 | 4 | 2 to 4 | 4 | Antimicrobial activity: MIC [20]: 4 to 8 µg/mL; Antimicrobial activity: MIC [21]: 4 to 8 µg/mL; Antimicrobial activity: MIC [22]: 2 to 4 µg/mL
GLRKRLRKFRNKIKEKLKKEGQKIQGLLPKLAPRTDY [I20E] |  |  |  |  |  |  |  |  |  |  |  |  |  |  |  |  | 4 | 4 | 4 | 8 | Antimicrobial activity: MIC [20]: ≥64 µg/mL; Antimicrobial activity: MIC [21]: 8 µg/mL; Antimicrobial activity: MIC [22]: 32 µg/mL; MIC / antimicrobial activity in LPS mutants harboring a deletion in waaC, waaE, waaF, or waaG [23]: 4 to 8 µg/mL
